Entries after “also recorded” stand apart in the source; their conditions may differ. Where two headings read alike, the source gives them in different places.
What was measured:
OAT = molecular target: T1, OAT (Homo sapiens, UniProt P04181); conditions: prior art, FIG. 1; cited from earlier work
T1 sequence (P04181 36-439 limits assumed): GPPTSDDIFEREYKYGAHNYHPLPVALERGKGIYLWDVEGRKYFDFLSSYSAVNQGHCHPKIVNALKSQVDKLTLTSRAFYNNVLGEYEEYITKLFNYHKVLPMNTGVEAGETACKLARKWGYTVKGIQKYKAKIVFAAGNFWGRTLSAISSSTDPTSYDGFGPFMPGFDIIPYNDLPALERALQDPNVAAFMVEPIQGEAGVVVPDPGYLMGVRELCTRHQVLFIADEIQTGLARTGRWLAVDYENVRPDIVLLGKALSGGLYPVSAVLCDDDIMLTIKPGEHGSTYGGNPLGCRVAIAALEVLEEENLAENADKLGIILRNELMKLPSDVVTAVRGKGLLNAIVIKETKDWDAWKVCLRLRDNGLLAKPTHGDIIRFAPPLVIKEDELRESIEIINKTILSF

[1] = tested on: γ-aminobutyric acid aminotransferase (GABA-AT); conditions: cited from earlier work
[2] = tested on: Salmonella typhimurium (TA98, TA100, TA1535, and TA1537) and Escherichia coli (WP2uvrA); experiment: In vitro bacterial reverse mutation assay; conditions: up to 5000 μg per plate, presence or absence of S9
[3] = 4-week oral (gavage) toxicology/toxicokinetic study in rats
Procedure: Rats received test article once daily for at least 4 weeks at a dose volume of 10 mL/kg followed by a 4-week recovery period.

[4] = tested on: three human GABA transporters; experiment: Binding to GABA transporters (summary statement)
[5] = tested on: aspartate aminotransferase; experiment: Inhibition of aspartate aminotransferase; type: biochemical; conditions: even at 6 mM concentration
[6] = tested on: human peripheral blood lymphocytes (HPBL); experiment: In vitro mammalian chromosome aberration test; type: cell-based; conditions: 535, 1070, and 2140 μg/mL, absence and presence of S9
Procedure: CPP-115 was tested in the in vitro mammalian chromosome aberration test using human peripheral blood lymphocytes (HPBL) in both the absence and presence of an Aroclor-induced rat liver S9 metabolic activation system.

alanine aminotransferase = experiment: Inhibition of alanine aminotransferase; type: biochemical; conditions: even at 6 mM concentration
[7] = in vivo
Procedure: Each dose cohort consisted of 8 subjects. […] Subjects were followed for safety for a 30-day period after receiving their single dose of study treatment.
Dose escalation can continue until completion of the 500 mg dose cohort.

[8] = tested on: Cerep panel of 111 pharmacological targets; experiment: Cerep panel
CYP3A4/5 = experiment: CYP inhibition in human liver microsomes; type: in vitro ADME; conditions: 0.1 to 100 μM
GABAA = experiment: Binding to GABAA
CYP1A2 = conditions: concentrations up to 100 μM, 3 days
GABAC = experiment: Binding to GABAC
[9] = 4-week oral (gavage) toxicology/toxicokinetic study in dogs
Procedure: Dogs received test article once daily for at least 4 weeks at a dose volume of 7 mL/kg followed by a 4-week recovery period.
Assessment of toxicity was based on mortality, clinical observations, body weights, body weight gain, food consumption, physical examinations, vital signs (heart rate, respiration, and body temperature), ophthalmology examinations, electrocardiogram examinations, clinical and anatomic pathology, and left eye evaluation.

HepG2 = experiment: Suppression of AFP levels in HCC cells; type: cell-based; conditions: HepG2, data not shown
[10] = molecular target: T2, ornithine aminotransferase (OAT) (Homo sapiens, UniProt P04181); experiment: Time-dependent inactivation of OAT and dialysis of the inactivated enzyme; type: biochemical; conditions: no activity returned upon dialysis for 48 h
T2 sequence (P04181 36-439 limits assumed): T1 sequence (P04181 36-439 limits assumed)
Procedure: OAT activity assays were carried out using as follows.
OAT incubated without the inactivator serves as a control. After 24 h, the enzyme solutions are transferred to a D-Tube™ Mini dialyzer and exhaustively dialyzed against the buffer (100 mM pyrophosphate buffer containing 0.1 mM alpha-ketoglutarate and 0.1 mM PLP, pH 8.0) at 4° C. protected from light. The dialysis buffer is exchanged three times every 4 h and left overnight. After 48 h of dialysis, the remaining OAT activity in each of the solutions is assayed.
For the determination of KI and kinact values, the natural logarithm of the percentage of remaining OAT activity is plotted against the pre-incubation time at each inhibitor concentration to obtain the kobs (slope) value for each concentration. The kobs is the rate constant describing the inactivation at each inhibitor concentration. kobs is re-plotted against the inhibitor concentration using nonlinear regression analysis (Graph-Pad Prism 6; GraphPad Software Inc.). kinact and the KI were estimated from the equation below: […], where kinact is the maximal rate of inactivation, KI is the inhibitor concentration required for half-maximal inactivation, and [I] is the pre-incubation concentration of inhibitor. […] The initial rate constants for the inactivation at various concentrations of the two compounds are determined using nonlinear regression analysis.

Hep3B cells = experiment: Alpha-fetoprotein (AFP) secretion in HCC cells; type: cell-based, human
Safety of 13 in mice = type: in vivo, C57Bl/6 mice; conditions: 0.5-5 mg/kg, two doses on days 1 and 4, tested a week later; data not shown
[11] = molecular target: T2, ornithine aminotransferase (OAT); experiment: Continuous coupled OAT assay (PYCR1/NADH), inhibition of OAT; type: biochemical; conditions: FIG. 2
Text: With these two assays in hand, the activity of a variety of compounds made previously as potential inhibitors of GABA-AT were investigated.

[12] = tested on: γ-aminobutyric acid aminotransferase (GABA-AT); experiment: Inhibition/inactivation of GABA-AT; type: biochemical
[13] = tested on: hepatocellular carcinoma (HCC); conditions: HCC patients, cited from earlier work; for response rates: single agent
[14] = rat, in vivo
Procedure: At the conclusion of dosing, rats entered a wash-out period (5-7 days) after which electroretinograms (ERGs) for scotopic (rod), mesopic (standard combined), photopic (cone), and 10 Hz and 15 Hz3 flicker ERG responses were collected for both eyes from each rat.
Quantitative histological examinations of retinas of the rats from this study were also carried out. Cone receptors were stained with a cone arrestin antibody and counterstained with a red stain for visualization and counting. Retinal sections were also stained with H&E and the ONL nuclei counts and ONL thicknesses were determined.

HepA1-6 [15] = experiment: Alpha-fetoprotein (AFP) secretion in HCC cells; type: cell-based
Procedure: (§1) Alpha-fetoprotein (AFP) secretion was evaluated as a biomarker for HCC. […] Within seven days of a single dose to HCC-harboring mice, AFP serum levels decreased by 92% in comparison with a 9.7 fold increase in controls (FIG. 5C).

HepA1-6 [16] = experiment: HCC proliferation, 3H-thymidine assay; type: cell-based; conditions: HepA1-6, 48 h after exposure to 20 mM gabaculine
[17] = tested on: human hepatoma Hep3B cells; experiment: Effect of gabaculine on HCC growth in vivo; design: species or system Athymic Balb/C mice
Procedure: as §1
Athymic Balb/C mice were conditioned with sub-lethal radiation (400 cGy). At 24 h after irradiation, animals were injected subcutaneously at the right shoulder with 5×10^6 human hepatoma Hep3B cells. Blood samples were obtained weekly by retrobulbar puncture, and serum was separated and frozen at −20° C. until assayed. On day 45 the mice were divided into two groups (n=8 per treated and controls) and baseline serum AFP was measured. […] Mice in the control group were injected with saline. AFP serum levels, which correlate with tumor growth, were measured on day 52 using a standard Elisa test.

PLC/PRF/5 [18] = experiment: Alpha-fetoprotein (AFP) secretion in HCC cells; type: cell-based
PLC/PRF/5 [19] = experiment: HCC proliferation, 3H-thymidine assay; type: cell-based; conditions: PLC/PRF/5, 48 h after exposure to 20 mM gabaculine
Hep3B = experiment: HCC proliferation, 3H-thymidine assay; type: cell-based, human; conditions: 48 h after exposure to 20 mM gabaculine

## C#CC(N)CCC(=O)O (stereo not drawn) [4-aminohex-5-ynoic acid]
OAT
  inactivation/inhibition of OAT (known compounds): also inactivate OAT with equal potency
[1]; prior art, FIG. 1
  inactivation/inhibition of GABA-AT (known compounds): inactivators of GABA-AT

## NC(CF)CC[C@H](N)C(=O)O (stereo partly drawn) [5-Fluoromethylornithine]
OAT
  inactivation/inhibition of OAT (known compounds): irreversible inhibitors of OAT

## N[C@H]1C[C@@H](C(=O)O)CC1=C(F)F [CPP-115, (1S,3S)-3-amino-4-difluoromethylenyl-1-cyclopentanoic acid]
[2]
  mutagenicity (reverse mutations): not mutagenic; also recorded: no mutations
[3]; 2, 6, 20 mg/kg/day oral
  increases in Cmax and AUC0-t with dose: generally dose proportional
[3]; 6 or 20 mg/kg/day, dosing and recovery phases
  adverse microscopic finding: retinal dysplasia
[3]; after oral administration
  hepatic extraction and tissue distribution: may not be highly extracted by the liver and may highly distribute to the tissues
[3]; oral once daily, 4 weeks
  accumulation after multiple dosing: No accumulation
[3]; rats
  Human Equivalent Dose [HED] of NOAEL: 0.96 mg/kg/day
[4]
  binding to three human GABA transporters: does not bind
[5]
  inhibition of aspartate aminotransferase: does not inhibit
[6]
  chromosome aberrations: not elastogenic; also recorded: no mutations or chromosomal aberrations
Alanine aminotransferase
  inhibition of alanine aminotransferase: does not inhibit
[7]; human, po
  elimination half-life: 4 to 6 h
[7]
  AUCs versus dose: greater than proportional increase
  cmax versus dose: increased in a dose proportional manner
[7]; po
  time to peak blood concentration: approximately 30 minutes
[8]
  activity in the Cerep panel of 111 pharmacological targets: not active
CYP3A4/5
  direct inhibition of CYP3A4/5: little or no evidence of direct inhibition
GABAA
  binding to GABAA: does not bind
CYP1A2
  induction of CYP1A2 activity: not an inducer
GABAC
  binding to GABAC: does not bind
[9]; dogs
  Human Equivalent Dose [HED] of NOAEL: 1.24 mg/kg/day
[9]; females
  no-observed-effect-level (NOEL): 0.7 mg/kg/day
[9]; males
  no-observed-effect-level (NOEL): 2.3 mg/kg/day

## COc1ccc(CN2C(=O)[C@H]3CC(=C(F)F)[C@@H]2C3)cc1 [Compound 13]
HepG2
  suppression of AFP levels / HCC tumor growth in vitro: profound suppression
[10]
  efficiency/potency as time-dependent irreversible inhibitor (inactivator) of OAT: most efficient
Hep3B cells; Hep3B, data not shown
  suppression of AFP levels / HCC tumor growth in vitro: profound suppression
Safety of 13 in mice
  liver enzymes, weight, behavior, and fur look: none of the tested doses were there any notable effects
[11]
  Ki: 3000 nM
  inhibition of / binding to OAT, in words: most potent inhibitor
[12]; even at 10 mM concentration
  inhibition of GABA-AT: does not inhibit GABA-AT

## NC1CC(C(=O)O)CC1=C(Cl)Cl (stereo not drawn) [Compound 18]
[11]
  inhibition of / binding to OAT, in words: very weak binder
[12]
  binding to GABA-AT: very weak binder

## Cl.N[C@H]1C[C@@H](C(=O)O)C/C1=C\F [Compound 20, (E)-(1S,3S)-3-Amino-4-fluoromethylenyl-1-cyclopentanoic acid, hydrochloride salt]
[12]
  time-dependent inhibition of GABA-AT: potent time-dependent inhibitors of GABA-AT

## Cl.N[C@H]1C[C@@H](C(=O)O)C/C1=C/F [Compound 22, (Z)-(1S,3S)-3-Amino-4-fluoromethylenyl-1-cyclopentanoic acid, hydrochloride salt]
[12]
  time-dependent inhibition of GABA-AT: potent time-dependent inhibitors of GABA-AT

## NCCCC(=O)O [GABA, γ-aminobutyric acid]
OAT
  inactivation/inhibition of OAT (known compounds): competitive inhibitor of OAT

## NOCC[C@H](N)C(=O)O [L-canaline]
OAT
  inactivation/inhibition of OAT (known compounds): irreversible inhibitors of OAT

## CCCCCOC(=O)Nc1nc(=O)n([C@@H]2O[C@H](C)[C@@H](O)[C@H]2O)cc1F [capecitabine]
[13]
  response rates in clinical trials: low and short term

## N.N.[Cl][Pt][Cl] [cisplatin]
[13]
  response rates: about 10%

## COc1cccc2c1C(=O)c1c(O)c3c(c(O)c1C2=O)C[C@@](O)(C(=O)CO)C[C@@H]3O[C@H]1C[C@H](N)[C@H](O)[C@H](C)O1 [doxorubicin]
[13]
  response rates: about 10%

## O=c1[nH]cc(F)c(=O)[nH]1 [fluorouracil]
[13]
  response rates: about 10%

## Nc1ccn([C@@H]2O[C@H](CO)[C@@H](O)C2(F)F)c(=O)n1 [gemcitabine]
[13]
  response rates in clinical trials: low and short term

## C=CC(N)CCC(=O)O (stereo not drawn) [vigabatrin, Vigabatrin, reference compound]
OAT
  inactivation/inhibition of OAT (known compounds): does not inactivate OAT
[14]
  cone receptor counts: no statistically significant change

## Gabaculine
HepA1-6 [15]
  AFP suppression: No significant differences
[1]
  inactivation/inhibition of GABA-AT (known compounds): inactivators of GABA-AT
HepA1-6 [16]
  suppression of proliferation: 46-51%
Hep3B cells; Hep3B cells
  decrease of AFP secretion: 20%
[17]; HCC-harboring mice
  tumor growth in vivo: significantly suppressed tumor growth in vivo
[17]; within seven days of a single dose (500 microgram/kg i.p.)
  decrease of AFP serum levels: 92%
PLC/PRF/5 [18]
  AFP suppression: No significant differences
PLC/PRF/5 [19]
  suppression of proliferation: 46-51%
Hep3B
  suppression of proliferation: 46-51%
